Laboratory results from patent US20090306098A1 (Cyclacel Limited, priority 2005, published 2009).

Legend:
[1] = system: H460 cells; experiment: Calcusyn drug combination (Alamar blue) in H460 cells; type: cell-based; conditions: HDAC inhibitor combined with seliciclib
[2] = system: A549 cells; conditions: A549 (value in parentheses), combined with seliciclib
Protocol: Experiments were carried out in 96-well plates and the cell lines seeded at a density of 2000/well for A549 and 3000/well for H460. […] Each HDAC inhibitor was then tested in combination with seliciclib using three different treatment regimes: concomitant, seliciclib pre-treatment followed by HDAC inhibitor and HDAC inhibitor pretreatment followed by seliciclib.
The drug concentrations selected were chosen to span the IC50 values for the drugs tested. In the pre-treatment regimes, the first drug was added 2 h after cells were plated, and left for 24 h. Medium was aspirated and replaced with fresh medium containing the second drug, and incubated for 72 h. The two controls for each sequential treatment involved substituting one of the drug treatments with medium.
Seliciclib was tested in combination with the indicated HDAC inhibitors in H460 and A549 cell lines, using three different treatment regimes. […] Data are the average of at least three independent experiments (Table 1).

[3] = system: H460 cells; conditions: H460, 1×IC50; medium 24 h then seliciclib 24 h; FIG. 6
[4] = HDAC inhibitor 24 h then seliciclib 72 h
[5] = seliciclib 24 h then HDAC inhibitor 72 h

SMILES | Combination Index at ED50, HDAC inhibitor pretreatment [1, 4] | Combination Index at ED75, HDAC inhibitor pretreatment [1, 4] | Combination Index at ED90, HDAC inhibitor pretreatment [1, 4] | Combination Index at ED50, Concomitant treatment ([1]; both drugs 72 h) | Combination Index at ED75, Concomitant treatment ([1]; both drugs 72 h) | Combination Index at ED90, Concomitant treatment ([1]; both drugs 72 h) | Combination Index at ED50, Seliciclib pretreatment [1, 5] | Combination Index at ED75, Seliciclib pretreatment [1, 5] | Combination Index at ED90, Seliciclib pretreatment [1, 5] | Combination Index at ED50, HDAC inhibitor pretreatment [2, 4] | Combination Index at ED75, HDAC inhibitor pretreatment [2, 4] | Combination Index at ED90, HDAC inhibitor pretreatment [2, 4] | Combination Index at ED50, Concomitant treatment ([2]; both drugs 72 h) | Combination Index at ED75, Concomitant treatment ([2]; both drugs 72 h) | Combination Index at ED90, Concomitant treatment ([2]; both drugs 72 h) | Combination Index at ED50, Seliciclib pretreatment [2, 5] | Combination Index at ED75, Seliciclib pretreatment [2, 5] | Combination Index at ED90, Seliciclib pretreatment [2, 5] | overall cell cycle distribution [3]
CCCC(=O)[O-].[Na+] [Butyrate, sodium butyrate] | 0.74 | 0.53 | 0.40 | 0.82 | 0.59 | 0.44 | 0.88 | 0.68 | 0.57 | 0.95 | 0.71 | 0.60 | 1.21 | 0.87 | 0.64 | 1.08 | 0.88 | 0.75 | –
CCCC(CCC)C(=O)[O-].[Na+] [Sodium valproate, sodium 2-propylpentanoate] | – | – | 0.84 | – | – | 1.07 | – | – | 0.81 | – | – | – | – | – | – | – | – | – | –
CC[C@H](CO)Nc1nc(NCc2ccccc2)c2ncn(C(C)C)c2n1 [seliciclib, 2-(1-R-hydroxymethylpropylamino)-6-benzylamino-9-isopropylpurine] | – | – | – | – | – | – | – | – | – | – | – | – | – | – | – | – | – | – | no significant impact
